Like-named read-outs stand apart in the source and are kept apart here. Positions of bridges follow the written chain, without caps; N, C: chain ends. Non-standard residues stand in square brackets, D forms with d. Residues, ends and D or L forms follow the SMILES beside them. Chains are numbered I, II in the order given. *: point of attachment. NOTA = O=C(O)CN1CCN(CC(=O)O)CCN(CC(=O)*)CC1
Legend:
[1] = Ex vivo biodistribution in U87.hCXCR4 tumor-bearing mice; set-up: species or system mouse; details: female, SCID (CB17.Cg-Prkdc<scid>Lyst<bg-J>/Crl), mouse, iv, total radioactivity, 75 min p.i., mean ± SD; for tissue to tissue ratio at 1.25 h: SUV ratio
[2] = PET/CT imaging in wild-type mice; format: in vivo, mouse; details: dynamic PET 0–60 min p.i., AMD3100 5 mg/kg
Method: Dynamic PET images were acquired for 60 min immediately after intravenous injection using a beta-cube PET scanner (Molecubes, Gent, Belgium). The mice were kept under gas anesthesia during the entire procedure (2.5% isoflurane in O2 at 1 L/min flow rate), with temperature and respiration monitored throughout. After PET scanning, a CT image was acquired for anatomic coregistration with an X-cube CT scanner (Molecubes, Gent, Belgium), using the ‘general’ protocol with the following parameters: 50 kVp, 480 exposures, 85 ms/projection, 100 μA tube current, rotation time 60 s. After scanning, mice were sacrificed 75 min p.i. and a whole-body biodistribution study was performed.
PET data were histogrammed into 14 frames (4 × 15 s, 4 × 1 min, 1 × 5 min, 5 × 10 min) and reconstructed into a 192 × 192 image matrix with 0.4 mm voxels using 30 iterations the native MLEM algorithm with corrections for randoms, scatter, attenuation and decay. CT Data were reconstructed using a regularized statistical (iterative) image reconstruction algorithm using non-negative least squares, using an isotropic 200 μm voxel size and scaled to Hounsfield Units (HUs) after calibration against a standard air/water phantom. […] Radiotracer uptake at 60 min, expressed as SUVmean, was the outcome measure.

Structure (SMILES): CC(C)C[C@@H](N)C(=O)NCC(=O)N[C@H](C)C(=O)N[C@H](CO)C(=O)N[C@H](Cc1c[nH]c2ccccc12)C(=O)N[C@H](Cc1c[nH]cn1)C(=O)N[C@H](CCCNC(=N)N)C(=O)N1CCC[C@@H]1C(=O)N[C@H](CC(=O)O)C(=O)N[C@H](CCCCNC(=O)CN1CCN(CC(=O)O)CCN(CC(=O)O)CC1)C(=O)NCCCC[C@@H](NC(=O)[C@H]1CCCN1C(=O)[C@@H](CC(C)C)NC(=O)[C@H]1CCCN1C(=O)[C@@H](CCCNC(=N)N)NC(=O)[C@@H](CCCCN)NC(=O)[C@@H](CCC(N)=O)NC(=O)[C@@H](Cc1ccc(O)cc1)NC(=O)CNC(=O)[C@@H](CC(C)C)NC(=O)[C@@H](CS)NC(=O)[C@@H](CS)NC(=O)[C@@H](CCCCN)NC(=O)[C@@H](CC(=O)O)NC(=O)[C@H]1CCCN1C(=O)[C@@H](CCCNC(=N)N)NC(=O)[C@@H](Cc1c[nH]cn1)NC(=O)[C@@H](Cc1c[nH]c2ccccc12)NC(=O)[C@@H](CO)NC(=O)[C@@H](C)NC(=O)CNC(=O)[C@H](N)CC(C)C)C(=O)O [[^18F]AlF-NOTA-DV1-k-(DV3)] (I: H-[dL]G[dA][dS][dW][dH][dR][dP][dD][dK][dC][dC][dL]G[dY][dQ][dK][dR][dP][dL][dP][dK]-OH / II: H-[dL]G[dA][dS][dW][dH][dR][dP][dD][dK](NOTA); amide I:22-II:C)
- SUV at 1.25 h ([1]; kidneys, co-injected DV1-k-(DV3) 14 nmol, n = 4, read-out: kidneys uptake): 33.6 ± 12.4 SUV
- SUV at 1.25 h ([1]; kidneys, co-injected DV1-k-(DV3) 24 nmol, n = 4, read-out: kidneys uptake): 36.1 ± 5.9 SUV
- SUV at 1.25 h ([1]; kidneys, tracer alone (0 nmol), n = 4, read-out: kidneys uptake): 26.5 ± 6 SUV
- SUV at 1.25 h ([1]; liver, co-injected AMD3100 5 mg/kg (157 nmol), n = 4, read-out: liver uptake): 0.9 ± 0.3 SUV
- SUV at 1.25 h ([1]; liver, tracer alone (0 nmol), n = 4, read-out: liver uptake): 8.2 ± 1 SUV
- SUV at 1.25 h ([1]; liver, with unlabelled DV1-k-(DV3) 7 nmol, co-injected, co-injected DV1-k-(DV3) 7 nmol, n = 3, read-out: liver uptake): 1.2 ± 0.1 SUV
- SUV at 1.25 h ([1]; liver, with unlabelled DV1-k-(DV3) 14 nmol, co-injected, co-injected DV1-k-(DV3) 14 nmol, n = 4, read-out: liver uptake): 1.2 ± 0.4 SUV
- SUV at 1.25 h ([1]; liver, with unlabelled DV1-k-(DV3) 24 nmol, co-injected, co-injected DV1-k-(DV3) 24 nmol, n = 4, read-out: liver uptake): 0.7 ± 0.1 SUV
- SUV at 1.25 h ([1]; lungs, co-injected AMD3100 5 mg/kg (157 nmol), n = 4, read-out: lungs uptake): 0.5 ± 0.1 SUV
- SUV at 1.25 h ([1]; lungs, co-injected DV1-k-(DV3) 7 nmol, n = 3, read-out: lungs uptake): 0.7 ± 0.2 SUV
- SUV at 1.25 h ([1]; lungs, co-injected DV1-k-(DV3) 14 nmol, n = 4, read-out: lungs uptake): 0.9 ± 0.3 SUV
- SUV at 1.25 h ([1]; lungs, co-injected DV1-k-(DV3) 24 nmol, n = 4, read-out: lungs uptake): 0.6 ± 0.2 SUV
- SUV at 1.25 h ([1]; lungs, tracer alone (0 nmol), n = 4, read-out: lungs uptake): 0.6 ± 0.2 SUV
- SUV at 1.25 h ([1]; muscle, co-injected DV1-k-(DV3) 7 nmol, n = 3, read-out: muscle uptake): 0.2 ± 0.1 SUV
- SUV at 1.25 h ([1]; muscle, co-injected DV1-k-(DV3) 14 nmol, n = 4, read-out: muscle uptake): 0.2 ± 0.1 SUV
- SUV at 1.25 h ([1]; muscle, co-injected DV1-k-(DV3) 24 nmol, n = 4, read-out: muscle uptake): 0.2 ± 0.1 SUV
- SUV at 1.25 h ([1]; muscle, tracer alone (0 nmol), n = 4, read-out: muscle uptake): 0.05 ± 0.02 SUV
- SUV at 1.25 h ([1]; muscle, with AMD3100 5 mg/kg (157 nmol), co-injected, co-injected AMD3100 5 mg/kg (157 nmol), n = 4, read-out: muscle uptake): 0.1 ± 0.1 SUV
- SUV at 1.25 h ([1]; pancreas, co-injected AMD3100 5 mg/kg (157 nmol), n = 4, read-out: pancreas uptake): 0.1 ± 0.1 SUV
- SUV at 1.25 h ([1]; pancreas, co-injected DV1-k-(DV3) 7 nmol, n = 3, read-out: pancreas uptake): 0.1 ± 0.04 SUV
- SUV at 1.25 h ([1]; pancreas, co-injected DV1-k-(DV3) 14 nmol, n = 4, read-out: pancreas uptake): 0.2 ± 0.1 SUV
- SUV at 1.25 h ([1]; pancreas, co-injected DV1-k-(DV3) 24 nmol, n = 4, read-out: pancreas uptake): 0.1 ± 0.03 SUV
- SUV at 1.25 h ([1]; pancreas, tracer alone (0 nmol), n = 4, read-out: pancreas uptake): 0.06 ± 0.02 SUV
- SUV at 1.25 h ([1]; spleen, co-injected AMD3100 5 mg/kg (157 nmol), n = 4, read-out: spleen uptake): 0.5 ± 0.1 SUV
- SUV at 1.25 h ([1]; spleen, co-injected DV1-k-(DV3) 7 nmol, n = 3, read-out: spleen uptake): 0.5 ± 0.1 SUV
- SUV at 1.25 h ([1]; spleen, co-injected DV1-k-(DV3) 14 nmol, n = 4, read-out: spleen uptake): 0.6 ± 0.2 SUV
- SUV at 1.25 h ([1]; spleen, co-injected DV1-k-(DV3) 24 nmol, n = 4, read-out: spleen uptake): 0.4 ± 0.1 SUV
- SUV at 1.25 h ([1]; spleen, tracer alone (0 nmol), n = 4, read-out: spleen uptake): 2.5 ± 1 SUV
- tissue to tissue ratio at 1.25 h ([1]; tumor / blood, tracer alone (0 nmol), n = 4, read-out: tumor-to-blood ratio (t/blood)): 4.6 ± 0.9
- tissue to tissue ratio at 1.25 h ([1]; tumor / liver, tracer alone (0 nmol), n = 4, read-out: tumor-to-liver ratio (t/liver)): 0.1 ± 0.02
- tissue to tissue ratio at 1.25 h ([1]; tumor / liver, with unlabelled DV1-k-(DV3) 24 nmol, co-injected, co-injected DV1-k-(DV3) 24 nmol, n = 4, read-out: tumor-to-liver ratio (t/liver)): 0.9 ± 0.2
- tissue to tissue ratio at 1.25 h ([1]; tumor / muscle, tracer alone (0 nmol), n = 4, read-out: tumor-to-muscle ratio (t/muscle)): 12.4 ± 2.9
- tissue to tissue ratio at 1.25 h ([1]; tumor / muscle, with AMD3100 5 mg/kg (157 nmol), co-injected, co-injected AMD3100 5 mg/kg (157 nmol), n = 4, read-out: tumor-to-muscle ratio (t/muscle)): 4.2 ± 1.1
- tissue to tissue ratio at 1.25 h ([1]; tumor / muscle, with unlabelled DV1-k-(DV3) 7 nmol, co-injected, co-injected DV1-k-(DV3) 7 nmol, n = 3, read-out: tumor-to-muscle ratio (t/muscle)): 5.4 ± 2.2
- tissue to tissue ratio at 1.25 h ([1]; tumor / muscle, with unlabelled DV1-k-(DV3) 14 nmol, co-injected, co-injected DV1-k-(DV3) 14 nmol, n = 4, read-out: tumor-to-muscle ratio (t/muscle)): 4.8 ± 2.1
- tissue to tissue ratio at 1.25 h ([1]; tumor / muscle, with unlabelled DV1-k-(DV3) 24 nmol, co-injected, co-injected DV1-k-(DV3) 24 nmol, n = 4, read-out: tumor-to-muscle ratio (t/muscle)): 3 ± 0.4
- SUV at 1.25 h ([1]; tumor, tracer alone (0 nmol), n = 4, read-out: tumor uptake): 0.6 ± 0.2 SUV
- SUV at 1.25 h ([1]; tumor, with AMD3100 5 mg/kg (157 nmol), co-injected, co-injected AMD3100 5 mg/kg (157 nmol), n = 4, read-out: tumor uptake): 0.4 ± 0.2 SUV
- SUV at 1.25 h ([1]; tumor, with unlabelled DV1-k-(DV3) 7 nmol, co-injected, co-injected DV1-k-(DV3) 7 nmol, n = 3, read-out: tumor uptake): 0.7 ± 0.1 SUV
- SUV at 1.25 h ([1]; tumor, with unlabelled DV1-k-(DV3) 14 nmol, co-injected, co-injected DV1-k-(DV3) 14 nmol, n = 4, read-out: tumor uptake): 0.9 ± 0.3 SUV
- SUV at 1.25 h ([1]; tumor, with unlabelled DV1-k-(DV3) 24 nmol, co-injected, co-injected DV1-k-(DV3) 24 nmol, n = 4, read-out: tumor uptake): 0.6 ± 0.2 SUV
- tissue to tissue ratio at 1.25 h ([1]; tumor/blood, co-injected DV1-k-(DV3) 7 nmol, n = 3, read-out: tumor-to-blood ratio (t/blood)): 2.2 ± 0.9
- tissue to tissue ratio at 1.25 h ([1]; tumor/blood, co-injected DV1-k-(DV3) 14 nmol, n = 4, read-out: tumor-to-blood ratio (t/blood)): 2 ± 0.9
- tissue to tissue ratio at 1.25 h ([1]; tumor/blood, co-injected DV1-k-(DV3) 24 nmol, n = 4, read-out: tumor-to-blood ratio (t/blood)): 1.8 ± 0.3
- tissue to tissue ratio at 1.25 h ([1]; tumor/bone, co-injected AMD3100 5 mg/kg (157 nmol), n = 4, read-out: tumor-to-bone ratio (t/bone)): 2.6 ± 0.7
- tissue to tissue ratio at 1.25 h ([1]; tumor/bone, co-injected DV1-k-(DV3) 7 nmol, n = 3, read-out: tumor-to-bone ratio (t/bone)): 2.9 ± 0.3
- tissue to tissue ratio at 1.25 h ([1]; tumor/bone, co-injected DV1-k-(DV3) 14 nmol, n = 4, read-out: tumor-to-bone ratio (t/bone)): 3.2 ± 0.4
- tissue to tissue ratio at 1.25 h ([1]; tumor/bone, co-injected DV1-k-(DV3) 24 nmol, n = 4, read-out: tumor-to-bone ratio (t/bone)): 3.3 ± 0.5
- tissue to tissue ratio at 1.25 h ([1]; tumor/bone, tracer alone (0 nmol), n = 4, read-out: tumor-to-bone ratio (t/bone)): 1.4 ± 0.5
- tissue to tissue ratio at 1.25 h ([1]; tumor/liver, co-injected AMD3100 5 mg/kg (157 nmol), n = 4, read-out: tumor-to-liver ratio (t/liver)): 0.5 ± 0.2
- tissue to tissue ratio at 1.25 h ([1]; tumor/liver, co-injected DV1-k-(DV3) 7 nmol, n = 3, read-out: tumor-to-liver ratio (t/liver)): 0.6 ± 0.1
- tissue to tissue ratio at 1.25 h ([1]; tumor/liver, co-injected DV1-k-(DV3) 14 nmol, n = 4, read-out: tumor-to-liver ratio (t/liver)): 0.8 ± 0.2
- tissue to tissue ratio at 1.25 h ([1]; tumor/spleen, co-injected AMD3100 5 mg/kg (157 nmol), n = 4, read-out: tumor-to-spleen ratio (t/spleen)): 0.7 ± 0.2
- tissue to tissue ratio at 1.25 h ([1]; tumor/spleen, co-injected DV1-k-(DV3) 7 nmol, n = 3, read-out: tumor-to-spleen ratio (t/spleen)): 1.4 ± 0.1
- tissue to tissue ratio at 1.25 h ([1]; tumor/spleen, co-injected DV1-k-(DV3) 14 nmol, n = 4, read-out: tumor-to-spleen ratio (t/spleen)): 1.4 ± 0.1
- tissue to tissue ratio at 1.25 h ([1]; tumor/spleen, co-injected DV1-k-(DV3) 24 nmol, n = 4, read-out: tumor-to-spleen ratio (t/spleen)): 1.6 ± 0.3
- tissue to tissue ratio at 1.25 h ([1]; tumor/spleen, tracer alone (0 nmol), n = 4, read-out: tumor-to-spleen ratio (t/spleen)): 0.3 ± 0.1
- kidney uptake on co-injection of AMD3100 [2]: increased with a factor of two
- liver retention on co-injection of AMD3100 [2]: completely blocked
